Assay results reported in ChEMBL document CHEMBL5338805, “Discovery of the First Subnanomolar PPARα/δ Dual Agonist for the Treatment of Cholestatic Liver Diseases” (J Med Chem, 2023).
Calls of active or inactive are those of the source. The calls are words filed in the database; no cut-off is given here.

Legend:
[1] = Anti-cholestatic activity in ANIT-induced C57BL/6Nifdc mouse model assessed as decrease in liver TCDCA at 0.03 to 0.1 mg/kg, po upto 42 hrs measured after 48 hrs; assay type: ADME, organism-based; conditions: in vivo, 90 h, dose 0.03-0.1 mg/kg
[2] = In vivo upregulation of PPAR alpha in C57BL/6JNifdc mouse liver administered orally for 3 days measured after 6 hrs of last administration by real-time PCR analysis; assay type: ADME, organism-based; conditions: po, 78 h, dose 0.03-0.1 mg/kg, time 3.25 day
[3] = target: Thyroid hormone receptor beta (Homo sapiens) (UniProt P10828); experiment: Agonist activity at THRbeta (unknown origin) transfected in african green monkey COS7 cells assessed transactivation incubated at 1 uM for 16 hrs by luciferase assay; assay type: cell-based
Sequence of Thyroid hormone receptor beta (Homo sapiens) (P10828 whole entry): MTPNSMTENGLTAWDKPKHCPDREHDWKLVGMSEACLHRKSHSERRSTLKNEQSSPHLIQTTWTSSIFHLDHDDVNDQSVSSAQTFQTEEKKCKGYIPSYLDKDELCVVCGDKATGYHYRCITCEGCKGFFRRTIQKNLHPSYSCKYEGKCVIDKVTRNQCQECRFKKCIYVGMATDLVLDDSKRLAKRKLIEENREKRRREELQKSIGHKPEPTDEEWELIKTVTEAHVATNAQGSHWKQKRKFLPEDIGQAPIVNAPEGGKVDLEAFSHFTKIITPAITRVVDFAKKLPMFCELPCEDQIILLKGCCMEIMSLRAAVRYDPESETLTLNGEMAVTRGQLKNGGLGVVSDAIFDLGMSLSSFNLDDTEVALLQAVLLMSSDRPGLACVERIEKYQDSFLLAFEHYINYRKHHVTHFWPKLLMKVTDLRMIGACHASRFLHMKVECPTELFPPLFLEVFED

[4] = target: Nuclear receptor subfamily 1 group I member 2 (Homo sapiens, UniProt O75469); experiment: Agonist activity at PXR (unknown origin) transfected in african green monkey COS7 cells assessed transactivation incubated at 1 uM for 16 hrs by luciferase assay; assay type: cell-based; conditions: cos7, 16 h
Sequence of Nuclear receptor subfamily 1 group I member 2 (O75469 whole entry): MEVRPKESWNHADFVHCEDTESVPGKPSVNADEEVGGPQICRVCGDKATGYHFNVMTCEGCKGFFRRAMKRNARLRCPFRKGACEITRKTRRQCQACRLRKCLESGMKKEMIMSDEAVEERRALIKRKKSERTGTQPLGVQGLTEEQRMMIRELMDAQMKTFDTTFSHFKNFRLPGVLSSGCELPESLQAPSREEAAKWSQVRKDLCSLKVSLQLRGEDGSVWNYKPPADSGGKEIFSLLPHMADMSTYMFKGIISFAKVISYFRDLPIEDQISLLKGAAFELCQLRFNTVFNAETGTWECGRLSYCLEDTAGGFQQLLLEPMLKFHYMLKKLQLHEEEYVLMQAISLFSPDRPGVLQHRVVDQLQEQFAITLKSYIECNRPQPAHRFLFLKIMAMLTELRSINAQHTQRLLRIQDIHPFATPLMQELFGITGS

[5] = Anti-cholestatic activity in ANIT-induced C57BL/6Nifdc mouse model assessed as downregulation of proinflammatory Tnf gene at 0.03 to 0.1 mg/kg, po upto 42 hrs measured after 48 hrs; assay type: ADME, organism-based; conditions: in vivo, 90 h, dose 0.03-0.1 mg/kg
[6] = Anti-cholestatic activity in ANIT-induced C57BL/6Nifdc mouse model assessed as downregulation of proinflammatory Nos2 gene at 0.03 to 0.1 mg/kg, po upto 42 hrs measured after 48 hrs; assay type: ADME, organism-based; conditions: in vivo, 90 h, dose 0.03-0.1 mg/kg
[7] = target: Retinoic acid receptor RXR-beta (Homo sapiens) (UniProt P28702); experiment: Agonist activity at RXRbeta (unknown origin) transfected in african green monkey COS7 cells assessed transactivation incubated at 1 uM for 16 hrs by luciferase assay; assay type: cell-based
Sequence of Retinoic acid receptor RXR-beta (Homo sapiens) (P28702 whole entry): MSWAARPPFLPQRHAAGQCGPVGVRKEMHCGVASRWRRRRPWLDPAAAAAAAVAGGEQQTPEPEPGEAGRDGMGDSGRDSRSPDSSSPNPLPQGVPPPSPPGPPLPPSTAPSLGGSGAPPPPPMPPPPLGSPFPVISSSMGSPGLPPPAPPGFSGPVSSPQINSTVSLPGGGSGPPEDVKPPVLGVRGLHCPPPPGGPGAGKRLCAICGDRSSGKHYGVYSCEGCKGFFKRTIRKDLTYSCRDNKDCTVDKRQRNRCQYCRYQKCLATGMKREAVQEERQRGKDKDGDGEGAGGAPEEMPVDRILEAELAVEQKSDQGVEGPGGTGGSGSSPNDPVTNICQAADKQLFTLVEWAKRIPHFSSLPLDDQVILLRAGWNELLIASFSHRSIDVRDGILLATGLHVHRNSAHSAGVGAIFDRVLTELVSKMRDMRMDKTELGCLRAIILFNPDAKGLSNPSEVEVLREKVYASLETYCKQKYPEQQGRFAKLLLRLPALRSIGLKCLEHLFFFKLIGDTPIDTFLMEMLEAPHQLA

[8] = Anti-fibrosis activity in Ccl4-induced C57BL/6Nifdc mouse model assessed as reversal of increased alpha-SMA administered orally for 3 weeks by Western blot analysis; assay type: ADME; conditions: in vivo, po, 504 h, dose 0.03-0.1 mg/kg
[9] = Clearance in fasted Sprague-Dawley rat at 2 mg/kg, IV measured at 0.083 to 24 hrs by LC-MS/MS analysis; assay type: ADME, organism-based; conditions: in vivo, time 0.083-24 hrs
[10] = target: Retinoic acid receptor gamma (Homo sapiens) (UniProt P13631); experiment: Agonist activity at RARgamma (unknown origin) transfected in african green monkey COS7 cells assessed transactivation incubated at 1 uM for 16 hrs by luciferase assay; assay type: cell-based
Sequence of Retinoic acid receptor gamma (Homo sapiens) (P13631 whole entry): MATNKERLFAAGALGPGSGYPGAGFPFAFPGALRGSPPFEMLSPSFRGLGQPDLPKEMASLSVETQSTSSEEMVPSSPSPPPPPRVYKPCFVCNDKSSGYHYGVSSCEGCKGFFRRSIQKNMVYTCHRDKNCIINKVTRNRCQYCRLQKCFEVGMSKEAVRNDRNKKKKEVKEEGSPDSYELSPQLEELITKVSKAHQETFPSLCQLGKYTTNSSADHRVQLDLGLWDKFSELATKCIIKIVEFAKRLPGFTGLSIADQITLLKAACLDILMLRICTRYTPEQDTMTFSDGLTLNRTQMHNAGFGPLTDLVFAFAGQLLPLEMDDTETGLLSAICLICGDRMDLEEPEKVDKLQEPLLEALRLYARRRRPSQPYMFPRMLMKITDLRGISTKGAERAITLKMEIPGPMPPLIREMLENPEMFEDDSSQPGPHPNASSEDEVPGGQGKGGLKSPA

[11] = target: Retinoic acid receptor alpha (Homo sapiens) (UniProt P10276); experiment: Agonist activity at RARalpha (unknown origin) transfected in african green monkey COS7 cells assessed transactivation incubated at 1 uM for 16 hrs by luciferase assay; assay type: cell-based
Sequence of Retinoic acid receptor alpha (Homo sapiens) (P10276 whole entry): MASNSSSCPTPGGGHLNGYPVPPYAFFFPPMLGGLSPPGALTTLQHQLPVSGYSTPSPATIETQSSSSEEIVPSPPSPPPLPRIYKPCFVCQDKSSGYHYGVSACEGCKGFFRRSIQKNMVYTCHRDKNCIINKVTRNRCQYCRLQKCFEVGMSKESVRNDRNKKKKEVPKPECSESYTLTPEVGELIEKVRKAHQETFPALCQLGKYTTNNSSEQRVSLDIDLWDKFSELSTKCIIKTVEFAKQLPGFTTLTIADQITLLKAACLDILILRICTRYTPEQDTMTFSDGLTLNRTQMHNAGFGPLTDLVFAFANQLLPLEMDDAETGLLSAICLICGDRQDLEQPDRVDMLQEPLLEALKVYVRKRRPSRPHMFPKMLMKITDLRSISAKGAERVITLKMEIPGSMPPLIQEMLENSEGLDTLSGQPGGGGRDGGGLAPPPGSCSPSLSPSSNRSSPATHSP

[12] = Upregulation of Mrp4 gene expression in C57BL/6JNifdc mouse liver assessed as increased efflux of bile acid administered at 0.03 to 0.1 mg/kg, po for 3 days measured after 6 hrs of last administration by real-time PCR analysis; assay type: ADME, organism-based; conditions: in vivo, 78 h, dose 0.03-0.1 mg/kg, time 3.25 day
[13] = Down-streaming of NTCP gene expression in C57BL/6JNifdc mouse liver assessed as hepatic resorption of bile acid administered at 0.03 mg/kg, po for 3 days measured after 6 hrs of last administration by real-time PCR analysis; assay type: ADME, organism-based; conditions: in vivo, 78 h
[14] = target: Oxysterols receptor LXR-beta (Homo sapiens) (UniProt P55055); experiment: Agonist activity at LXRbeta (unknown origin) transfected in african green monkey COS7 cells assessed transactivation incubated at 1 uM for 16 hrs by luciferase assay; assay type: cell-based
Sequence of Oxysterols receptor LXR-beta (Homo sapiens) (P55055 whole entry): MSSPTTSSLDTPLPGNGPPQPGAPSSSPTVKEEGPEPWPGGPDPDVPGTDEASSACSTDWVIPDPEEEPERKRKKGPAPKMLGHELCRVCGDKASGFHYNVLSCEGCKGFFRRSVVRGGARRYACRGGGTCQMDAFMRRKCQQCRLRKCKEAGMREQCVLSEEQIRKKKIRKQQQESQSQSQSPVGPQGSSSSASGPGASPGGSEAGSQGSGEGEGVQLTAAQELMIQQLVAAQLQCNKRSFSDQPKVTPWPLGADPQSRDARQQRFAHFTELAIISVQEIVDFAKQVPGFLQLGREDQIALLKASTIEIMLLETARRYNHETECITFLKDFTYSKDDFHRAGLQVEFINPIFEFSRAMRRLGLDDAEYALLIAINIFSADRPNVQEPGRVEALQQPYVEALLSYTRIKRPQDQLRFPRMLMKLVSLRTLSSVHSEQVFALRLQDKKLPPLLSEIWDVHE

[15] = target: Peroxisome proliferator-activated receptor delta (Homo sapiens) (UniProt Q03181); conditions: filed as agonist, dose 0.625-10 µM
Sequence of Peroxisome proliferator-activated receptor delta (Homo sapiens) (Q03181 whole entry): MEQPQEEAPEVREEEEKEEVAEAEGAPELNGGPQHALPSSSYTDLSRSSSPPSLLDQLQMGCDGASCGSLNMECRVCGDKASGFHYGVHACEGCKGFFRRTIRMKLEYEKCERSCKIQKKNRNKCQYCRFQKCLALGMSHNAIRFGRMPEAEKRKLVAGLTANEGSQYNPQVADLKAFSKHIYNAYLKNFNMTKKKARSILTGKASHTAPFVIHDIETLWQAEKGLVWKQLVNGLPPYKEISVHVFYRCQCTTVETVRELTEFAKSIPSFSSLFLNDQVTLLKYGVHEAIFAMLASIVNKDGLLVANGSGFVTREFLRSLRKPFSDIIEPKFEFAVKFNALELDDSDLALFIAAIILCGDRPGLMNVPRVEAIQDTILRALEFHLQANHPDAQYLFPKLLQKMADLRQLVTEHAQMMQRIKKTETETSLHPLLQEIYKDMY
Description: Binding affinity to PPARdelta LBD (unknown origin) assessed as thermal stability by measuring change in melting temperature by thermal shift assay

[16] = Down-streaming of Cyp7a1 gene expression in C57BL/6JNifdc mouse liver assessed as hepatic resorption of bile acid administered at 0.03 mg/kg, po for 3 days measured after 6 hrs of last administration by real-time PCR analysis; assay type: ADME, organism-based; conditions: in vivo, 78 h
[17] = Anti-cholestatic activity in ANIT-induced C57BL/6Nifdc mouse model assessed as downregulation of NF-kappaB signalling pathway at 0.03 to 0.1 mg/kg, po upto 42 hrs measured after 48 hrs; assay type: ADME, organism-based; conditions: in vivo, 90 h, dose 0.03-0.1 mg/kg
[18] = Anti-cholestatic activity in ANIT-induced C57BL/6Nifdc mouse model assessed as downregulation of proinflammatory Ccl4 gene at 0.03 to 0.1 mg/kg, po upto 42 hrs measured after 48 hrs; assay type: ADME, organism-based; conditions: in vivo, 90 h, dose 0.03-0.1 mg/kg

Cc1cc(CN2C(=O)CN(c3ccc(C(F)(F)F)cc3)C2=O)cc(C)c1OC(C)(C)C(=O)O
Activity [1]: Active
Activity [2]: Dose-Dependent Effect
Activity [3]: inactive
Activity [4]: Not Active
Activity [5]: Active
Activity [6]: Active
Activity [7]: inactive
Activity [8]: Dose-Dependent Effect
CL [9]: 8.4 mL/min/kg
Activity [10]: inactive
Activity [11]: inactive
Activity [12]: Active
Activity [13]: Active
Activity [14]: inactive
deltaTm [15]: Dose-Dependent Effect
Activity [16]: Active
Activity [17]: Active
Activity [18]: Active
